In experiment [1] the test system is Streptococcus pneumoniae 1/1. Kind of experiment: MIC against Streptococcus pneumoniae 1/1. In kind it is cell-based. As to conditions: Streptococcus pneumoniae 1/1, trimethoprim- and penicillin-resistant, serotype 6, clinical isolate, read-out: MIC Sp1/1.
Experiment [2] addresses purified DHFR of strain 157/4696 of Staphylococcus aureus (Staphylococcus aureus, UniProt P13955). In words: biochemical.
Experiment [3] concerns the target T1, purified DHFR of strain Sp1/1 of Streptococcus pneumoniae (Streptococcus pneumoniae serotype 4, UniProt Q54801).
T1 sequence (Q54801 1-168 I100L): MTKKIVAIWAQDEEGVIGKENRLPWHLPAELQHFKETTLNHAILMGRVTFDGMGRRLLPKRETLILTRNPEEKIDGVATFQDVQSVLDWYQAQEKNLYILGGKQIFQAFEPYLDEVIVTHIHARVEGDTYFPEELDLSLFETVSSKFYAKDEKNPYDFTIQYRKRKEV
In kind it is biochemical. As to conditions: IC50 against purified DHFR of strain Sp1/1.

For experiment [4], the system named is Staphylococcus aureus 101. In words: MIC against Staphylococcus aureus 101. It is filed as cell-based. As to conditions: Staphylococcus aureus 101, MRSA- and trimethoprim-resistant, clinical isolate, read-out: MIC Sa101.

The source of these data is patent publication US6821980B1, “Substituted 5-benzyl-2,4-diaminopyrimidines” (Basilea Pharmaceutica AG, priority 1999, dated 2004).

Molecules are shown by their SMILES. In brackets after ≈: the same amount, converted by molar mass. Like-named read-outs stand apart in the source and are kept apart here.

Sequence of purified DHFR of strain 157/4696 of Staphylococcus aureus (P13955 whole entry): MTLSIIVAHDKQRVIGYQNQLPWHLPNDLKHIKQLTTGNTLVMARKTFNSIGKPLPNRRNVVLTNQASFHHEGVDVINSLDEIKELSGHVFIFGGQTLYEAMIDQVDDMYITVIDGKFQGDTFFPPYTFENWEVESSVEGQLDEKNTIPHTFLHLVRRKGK

Broadly, the IC50 is the concentration that inhibits the measured activity by half. A lower IC50 goes with greater potency in that assay. On to `CCOc1cc(Cc2cnc(N)nc2N)cc(OS(=O)(=O)C2CC2)c1-c1ccc(N)c(C)c1` [Example 34-d, Cyclopropanesulphonic acid 4′-amino-4-(2,4-diamino-pyrimidin-5-ylmethyl)-6-ethoxy-3′-methyl-biphenyl-2-yl ester], for which the MIC was determined as 1 µg/mL (≈ 2.13 µM) in experiment [1] (Table 2) and 2 µg/mL (≈ 4.26 µM) in experiment [4] (Table 2). For the same compound, the IC50 in experiment [2] came to 140 nM; in experiment [3] (Table 2), 2.4 nM.

Turning to `CCOc1cc(Cc2cnc(N)nc2N)cc(OS(=O)(=O)C2CC2)c1-c1ccc(CN2CCOCC2)c(N)c1` [Example 34-e, Cyclopropanesulphonic acid 3′-amino-4-(2,4-diamino-pyrimidin-5-ylmethyl)-6-ethoxy-4′-morpholin-4-ylmethyl-biphenyl-2-yl ester], the MIC in experiment [1] (Table 2) and in experiment [4] (Table 2) was 4 µg/mL (≈ 7.21 µM) in each case. The values for the IC50 in experiment [2] and in experiment [3] (Table 2) were 140 nM and 15 nM, respectively.

Consider `CCOc1cc(Cc2cnc(N)nc2N)cc(OS(=O)(=O)C2CC2)c1-c1ccc(C)c(N)c1` [Example 34-f, Cyclopropanesulphonic acid 3′-amino-4-(2,4-diamino-pyrimidin-5-ylmethyl)-6-ethoxy-4′-methyl-biphenyl-2-yl ester], for which the MIC stood at 1 µg/mL (≈ 2.13 µM) in experiment [1] (Table 2) and 2 µg/mL (≈ 4.26 µM) in experiment [4] (Table 2). Also, the IC50 in experiment [2] was 97 nM; in experiment [3] (Table 2) it was 9.5 nM.

Turning to `CCOc1cc(Cc2cnc(N)nc2N)cc(OS(=O)(=O)C(C)CC)c1-c1ccc(N)c(F)c1` (stereo not shown) [Example 35-b, Butane-2-sulphonic acid 4′-amino-4-(2,4-diamino-pyrimidin-5-ylmethyl)-6-ethoxy-3′-fluoro-biphenyl-2-yl ester], the MIC in experiment [1] (Table 2) amounted to 0.5 µg/mL (≈ 1.02 µM); in experiment [4] (Table 2), 2 µg/mL (≈ 4.09 µM). For the same compound, the values for the IC50 in experiment [2] and in experiment [3] (Table 2) were 130 nM and 9 nM, respectively.

Consider `CCOc1cc(Cc2cnc(N)nc2N)cc(OS(=O)(=O)C(C)CC)c1-c1ccc(CN2CCOCC2)c(N)c1` (stereo not shown) [Example 35-c, Butane-2-sulphonic acid 3′-amino-4-(2,4-diamino-pyrimidin-5-ylmethyl)-6-ethoxy-4′-morpholin-4-ylmethyl-biphenyl-2-yl ester], for which the MIC in experiment [1] (Table 2) was 1 µg/mL (≈ 1.75 µM); in experiment [4] (Table 2), 2 µg/mL (≈ 3.5 µM). For the same compound, the values for the IC50 in experiment [2] and in experiment [3] (Table 2) were 43 nM and 4.6 nM, respectively.

With `CCOc1cc(Cc2cnc(N)nc2N)cc(OS(=O)(=O)C(C)CC)c1-c1ccc(OC)c(N)c1` (stereo not shown) [Example 35-d, Butane-2-sulphonic acid 3′-amino-4-(2,4-diamino-gyrimidin-5-ylmethyl)-6-ethoxy-4′-methoxy-biphenyl-2-yl ester], the MIC in experiment [1] (Table 2) was 1 µg/mL (≈ 1.99 µM); in experiment [4] (Table 2), 2 µg/mL (≈ 3.99 µM). Also, the IC50 in experiment [2] was 95 nM; in experiment [3] (Table 2), 4.3 nM.

For `CCOc1cc(Cc2cnc(N)nc2N)cc(OS(=O)(=O)C(C)CC)c1-c1ccc(NCCO)cc1` (stereo not shown) [Example 35-f, Butane-2-sulphonic acid 4-(2,4-diamino-pyrimidin-5-ylmethyl)-6-ethoxy-4′-(2-hydroxy-ethylamino)-biphenyl-2-yl ester], the figures for the MIC in experiment [1] (Table 2) and in experiment [4] (Table 2) were 0.5 µg/mL (≈ 0.97 µM) and 4 µg/mL (≈ 7.76 µM), respectively. Moreover, the figures for the IC50 in experiment [2] and in experiment [3] (Table 2) were 120 nM and 8.5 nM, respectively.

On to `CCOc1cc(Cc2cnc(N)nc2N)cc(OS(=O)(=O)C(C)CC)c1-c1ccc(N)cc1` (stereo not shown) [Example 35a, Butane-2-sulphonic acid 4′-amino-4-(2,4-diamino-pyrimidin-5-ylmethyl)-6ethoxy-biphenyl-2-yl ester], for which the results for the MIC in experiment [1] (Table 1) and in experiment [4] (Table 1) were 0.5 µg/mL (≈ 1.06 µM) and 2 µg/mL (≈ 4.24 µM), respectively. In addition, the IC50 stood at 110 nM in experiment [2] and 3.7 nM in experiment [3] (Table 1).

For the compound `CCOc1cc(Cc2cnc(N)nc2N)cc(OS(=O)(=O)C(C)CC)c1-c1ccc(N)c(C)c1` (stereo not shown) [Example 35e, Butane-2-sulphonic acid 4′-amino-4-(2,4-diamino-pyrimidin-5-ylmethyl)-6-ethoxy-3′-methyl-biphenyl-2-yl ester], the MIC was determined as 0.5 µg/mL (≈ 1.03 µM) in experiment [1] (Table 1) and 1 µg/mL (≈ 2.06 µM) in experiment [4] (Table 1). In addition, the values for the IC50 in experiment [2] and in experiment [3] (Table 1) were 62 nM and 4.6 nM, respectively.

On to `CCOc1cc(Cc2cnc(N)nc2N)cc(OS(=O)(=O)CC(C)C)c1-c1ccc(N)c(C)c1` [Example 36-a, 2-Methyl-propane-1-sulphonic acid 4′-amino-4-(2,4-diamino-pyrimidin-5-ylmethyl)-6-ethoxy-3′-methyl-biphenyl-2-yl ester], for which the MIC is 0.25 µg/mL (≈ 0.515 µM) in experiment [1] (Table 2) and 2 µg/mL (≈ 4.12 µM) in experiment [4] (Table 2). The IC50 in experiment [2] was determined as 32 nM; in experiment [3] (Table 2), 3.3 nM.

For `CCOc1cc(Cc2cnc(N)nc2N)cc(OS(=O)(=O)CC(C)C)c1-c1ccc(N)c(F)c1` [Example 36-b, 2-Methyl-propane-1-sulphonic acid 4′-amino-4-(2,4-diamino-pyrimidin-5-ylmethyl)-6-ethoxy-3′-fluoro-biphenyl-2-yl ester], the values for the MIC in experiment [1] (Table 2) and in experiment [4] (Table 2) were 0.5 µg/mL (≈ 1.02 µM) and 8 µg/mL (≈ 16.3 µM), respectively. Moreover, the IC50 in experiment [2] was 230 nM; in experiment [3] (Table 2), 5.8 nM.

`CCOc1cc(Cc2cnc(N)nc2N)cc(OS(=O)(=O)CC(C)C)c1-c1ccc(N)cc1` [Example 36-c, 2-Methyl-propane-1-sulphonic acid 4′-amino-4-(2,4-diamino-pyrimidin-5-ylmethyl)-6-ethoxy-biphenyl-2-yl ester]: the MIC in experiment [1] (Table 2) is 0.5 µg/mL (≈ 1.06 µM); in experiment [4] (Table 2), 2 µg/mL (≈ 4.24 µM). The IC50 in experiment [2] was found to be 240 nM; in experiment [3] (Table 2), 4.8 nM.

On to `CCOc1cc(Cc2cnc(N)nc2N)cc(OS(=O)(=O)CC(C)C)c1-c1ccc(OC)c(N)c1` [Example 36-d, 2-Methyl-prooane-1-sulphonic acid 3′-amino-4-(2,4-diamino-pyrimidin-5-ylmethyl)-6-ethoxy-4′-methoxy-biphenyl-2-yl ester], for which the MIC is 0.5 µg/mL (≈ 0.997 µM) in experiment [1] (Table 2) and 2 µg/mL (≈ 3.99 µM) in experiment [4] (Table 2). For the same compound, the IC50 in experiment [2] was 66 nM; in experiment [3] (Table 2), 0.68 nM.

In the case of `CCOc1cc(Cc2cnc(N)nc2N)cc(OS(=O)(=O)CC(C)C)c1-c1ccc(NCCO)cc1` [Example 36-e, 2-Methyl-propane-1-sulphonic acid 4-(2,4-diamino-pyrimidin-5-ylmethyl)-6-ethoxy-4′-(2-hydroxy-ethylamino)-biphenyl-2-yl ester], the MIC in experiment [1] (Table 2) worked out at 0.5 µg/mL (≈ 0.97 µM); in experiment [4] (Table 2) it was 4 µg/mL (≈ 7.76 µM). For the same compound, the IC50 was determined as 250 nM in experiment [2] and 2.1 nM in experiment [3] (Table 2).

For the compound `CCOc1cc(Cc2cnc(N)nc2N)cc(OS(=O)(=O)CC(C)(C)C)c1-c1ccc(N)c(F)c1` [Example 37-a, 2,2-Dimethyl-propane-1-sulphonic acid 4′-amino-4-(2,4-diamino-pyrimidin-5-ylmethyl)-6-ethoxy-3′-fluoro-biphenyl-2-yl ester], the MIC in experiment [1] (Table 2) was found to be 0.25 µg/mL (≈ 0.496 µM); in experiment [4] (Table 2), 4 µg/mL (≈ 7.94 µM). Besides, the half-maximal inhibitory concentration (IC50) in experiment [2] is 550 nM; in experiment [3] (Table 2), 4.5 nM.

With `CCOc1cc(Cc2cnc(N)nc2N)cc(OS(=O)(=O)CC(C)(C)C)c1-c1ccc(OC)c(N)c1` [Example 37-b, 2,2-Dimethyl-propane-1-sulphonic acid 3′-amino-4-(2,4-diamino-pyrimidin-5-ylmethyl)-6-ethoxy-4′-methoxy-biphenyl-2-yl ester], the MIC in experiment [1] (Table 2) came out at 0.25 µg/mL (≈ 0.485 µM); in experiment [4] (Table 2) it was 4 µg/mL (≈ 7.76 µM). The 50% inhibitory concentration (IC50) is 260 nM in experiment [2] and 1.7 nM in experiment [3] (Table 2).
